According to patent US20230066011A1, “PYRROLOPYRIMIDINE DERIVATIVE, AND PHARMACEUTICAL COMPOSITION FOR PREVENTING OR TREATING PROTEIN KINASE-RELATED DISEASE COMPRISING SAME AS ACTIVE INGREDIENT” (VORONOI CO., LTD., priority 2019, published 2023):

Experiments:
Type in all cases: biochemical
[1] = biological target: T1, human GST-DYRK1A (Homo sapiens, UniProt Q13627); assay: GST-DYRK1A enzyme inhibition, ADP-Glo kinase assay; conditions: ATP 10 μM, GST-DYRK1A full length, read-out: DYRK1 IC50
T1 construct: purified human GST-DYRK1A (full length, Thermo Scientifics) enzyme; purchased Thermo Scientifics
In short: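 Full-length enzyme (10 ng) was incubated with 10 μM ATP and a specific substrate for 1 h at 25 °C in 40 mM Tris-HCl pH 7.4, 20 mM MgCl2, 0.5 mg/mL BSA, 50 μM DTT. Luminescence was read against a solvent control, and IC50 values were derived from 3 data sets.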

[2] = biological target: LRRK2 (G2019S) (Homo sapiens, UniProt Q5S007, G2019S); assay: LRRK2 G2019S enzyme inhibition, ADP-Glo kinase assay; design: purchased SignalChem L10-12GG; conditions: ATP 25 μM
Description: To evaluate an inhibitory activity of the compound according to the present invention against LRRK2, LRRK2 (G2019S), DYRK1, CLK1, and TTK kinases, experiments were performed as follows.
Each of the Example compounds was reacted with a purified human LRRK2 G2019S (L10-12GG, SignalChem) enzyme to evaluate an ability to inhibit an enzyme using a method as described below. A composition of 40 mM Tris-HCl (pH 7.4), 20 mM MgCl2, 0.5 mg/mL BSA, and 50 μM DTT was used as a reaction buffer, and all reactions of test substances were performed in the reaction buffer. Each of the compounds was diluted […] from a 10 mM DMSO stock using a serial dilution method, and enzyme activities were measured at final compound concentrations of 50, 10, 2, 0.4, 0.08, 0.016, 0.0032, 0.00064, 0.000128, 0.0000256, 0.00000512, and 0.000001024 μM. In the test, purified ATP (25 μM) and an enzyme substrate (0.2 μg) were reacted with a human LRRK2 G2019S (16 ng) enzyme at 25° C. for 2 hours, and the enzyme activities were then determined using an in vitro ADP-Glo™ kinase assay (Promega). An enzyme-activity reaction solution, an ADP-Glo reaction solution, and an enzyme-ability detection solution were reacted at a ratio of 2:2:1 to measure a degree of inhibition of the enzyme activity with luminescence. The degree of inhibition of the enzyme activity according to the treatment concentration of each of the compounds was calculated based on the fluorescence of the enzyme activity of the solvent control which was not treated with the compound. In this case, the concentration of each of the compounds inhibiting 50% of the enzyme activity was determined to be an IC50 (nM) value, and calculated using Prism (Version 5.01; GraphPad) software.

[3] = biological target: T2, human GST-CLK1 (Homo sapiens, UniProt P49759); assay: GST-CLK1 enzyme inhibition, ADP-Glo kinase assay; conditions: ATP 10 μM, GST-CLK1 129-end
T2 construct: purified human GST-CLK1 (129-end, SignalChem) enzyme; purchased SignalChem
In short: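 ADP-Glo luminescence read-out, relative to untreated solvent control, gave IC50 (nM) from triplicate data sets. Reactions ran an hour at 25° C with 3 ng GST-CLK1 (residues 129-end), 10 μM ATP and specific substrate in Tris-HCl pH 7.4 buffer with MgCl2, BSA and DTT.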

T2 sequence (P49759 129-484 limits assumed): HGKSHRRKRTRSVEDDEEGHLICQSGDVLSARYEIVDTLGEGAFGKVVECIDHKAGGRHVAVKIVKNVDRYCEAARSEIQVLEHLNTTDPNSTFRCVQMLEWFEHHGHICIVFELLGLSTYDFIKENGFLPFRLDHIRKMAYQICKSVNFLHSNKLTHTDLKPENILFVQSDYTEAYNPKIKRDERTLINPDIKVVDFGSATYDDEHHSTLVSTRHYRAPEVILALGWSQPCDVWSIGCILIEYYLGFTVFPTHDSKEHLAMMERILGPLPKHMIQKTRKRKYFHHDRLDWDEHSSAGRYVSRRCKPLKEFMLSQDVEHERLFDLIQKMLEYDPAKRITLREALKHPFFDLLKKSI
Chain of LRRK2 (G2019S) (Q5S007 970-2527 G2019S limits assumed): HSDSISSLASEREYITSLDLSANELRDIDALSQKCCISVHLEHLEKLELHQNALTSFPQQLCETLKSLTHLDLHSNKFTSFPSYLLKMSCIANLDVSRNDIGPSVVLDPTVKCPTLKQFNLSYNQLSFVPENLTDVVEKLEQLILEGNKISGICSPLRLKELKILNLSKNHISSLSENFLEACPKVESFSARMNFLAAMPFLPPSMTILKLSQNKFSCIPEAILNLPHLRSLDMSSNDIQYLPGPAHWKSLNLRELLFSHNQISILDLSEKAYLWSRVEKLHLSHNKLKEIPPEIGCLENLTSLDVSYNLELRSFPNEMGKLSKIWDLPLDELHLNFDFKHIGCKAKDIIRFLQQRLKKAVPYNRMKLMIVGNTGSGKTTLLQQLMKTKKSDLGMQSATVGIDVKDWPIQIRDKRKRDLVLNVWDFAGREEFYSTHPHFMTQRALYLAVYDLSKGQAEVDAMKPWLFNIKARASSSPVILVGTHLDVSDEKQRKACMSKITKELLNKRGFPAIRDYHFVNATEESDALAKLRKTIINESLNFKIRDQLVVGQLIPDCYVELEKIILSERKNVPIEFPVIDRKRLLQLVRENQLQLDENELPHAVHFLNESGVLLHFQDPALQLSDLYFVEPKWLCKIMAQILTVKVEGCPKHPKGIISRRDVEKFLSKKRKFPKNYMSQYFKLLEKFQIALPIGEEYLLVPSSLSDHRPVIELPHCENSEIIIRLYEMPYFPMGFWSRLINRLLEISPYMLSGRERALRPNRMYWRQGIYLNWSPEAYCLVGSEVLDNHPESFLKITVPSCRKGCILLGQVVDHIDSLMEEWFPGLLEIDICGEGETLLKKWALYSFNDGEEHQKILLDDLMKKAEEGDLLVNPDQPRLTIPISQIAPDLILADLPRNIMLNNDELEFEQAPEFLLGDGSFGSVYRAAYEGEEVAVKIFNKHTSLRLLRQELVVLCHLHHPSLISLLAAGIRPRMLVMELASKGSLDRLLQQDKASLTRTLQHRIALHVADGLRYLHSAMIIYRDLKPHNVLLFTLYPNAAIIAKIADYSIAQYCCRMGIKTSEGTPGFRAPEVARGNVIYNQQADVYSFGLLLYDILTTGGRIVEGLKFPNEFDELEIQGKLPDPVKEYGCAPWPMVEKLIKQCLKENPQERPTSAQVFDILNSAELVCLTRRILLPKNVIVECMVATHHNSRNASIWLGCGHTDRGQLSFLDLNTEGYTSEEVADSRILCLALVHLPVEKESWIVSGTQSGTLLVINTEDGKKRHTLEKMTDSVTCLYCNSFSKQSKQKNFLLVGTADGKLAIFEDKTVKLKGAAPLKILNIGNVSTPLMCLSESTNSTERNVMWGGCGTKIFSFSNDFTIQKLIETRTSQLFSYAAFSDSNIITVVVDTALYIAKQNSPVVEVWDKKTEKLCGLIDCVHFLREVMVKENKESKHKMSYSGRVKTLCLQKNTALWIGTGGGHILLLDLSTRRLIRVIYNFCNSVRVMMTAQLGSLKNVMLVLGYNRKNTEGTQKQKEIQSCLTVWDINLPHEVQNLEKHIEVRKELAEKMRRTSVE

SMILES: COc1cc(P(C)(C)=O)ccc1Nc1nc(NCC2CCC2)c2c(C(F)(F)F)c[nH]c2n1 [Example 391, (4-((4-((cyclo-butylmethyl)amino)-5-(trifluoromethyl)-7H-pyrrolo[2,3-d]pyrimidin-2-yl)amino)-3-methoxyphenyl) dimethyl-phosphine oxide]
- IC50 [1]: 301 to 1000 nM
- IC50 [2]: < 100 nM
- IC50 [3]: 301 to 1000 nM

SMILES: CCNc1nc(Nc2ccc(S(=O)(=O)N3CCOCC3)cc2OC)nc2[nH]ccc12 [Example 5, N^4-ethyl-N^2-(2-methoxy-4-(morpholinosulfonyl)phenyl)-7H-pyrrolo[2,3-d]pyrimidine-2,4-diamine 2,2,2-trifluoroacetate]
- IC50 [1]: 301 to 1000 nM
- IC50 [2]: < 100 nM
- IC50 [3]: 301 to 1000 nM

SMILES: COc1cc(S(C)(=O)=O)ccc1Nc1nc(NCC(C)C)c2c(C#N)c[nH]c2n1 [Example 100, 4-(isobutylamino)-2-((2-methoxy-4-(methylsulfonyl)phenyl)amino)-7H-pyrrolo[2,3-d]pyrimidine-5-carbonitrile]
- IC50 [1]: 301 to 1000 nM
- IC50 [2]: < 100 nM
- IC50 [3]: 301 to 1000 nM

SMILES: COc1cc(P(C)(C)=O)ccc1Nc1nc(NCC2CCCC2)c2c(C(F)(F)F)c[nH]c2n1 [Example 392, (4-((4-((cyclo-pentylmeth-yl)amino)-5-(trifluoromethyl)-7H-pyrrolo[2,3-d]pyrimidin-2-yl)amino)-3-methoxyphenyl) dimethyl-phosphine oxide]
- IC50 [1]: 301 to 1000 nM
- IC50 [2]: 301 to 1000 nM
- IC50 [3]: 301 to 1000 nM

SMILES: COc1cc(S(=O)(=O)N2CCOCC2)ccc1Nc1nc(NC(C)C)c2cc[nH]c2n1 [Example 13, N^4-isopropyl-N^2-(2-methoxy-4-(morpholinosulfonyl)phenyl)-7H-pyrrolo[2,3-d]pyrimidine-2,4-diamine 2,2,2-trifluoroacetate]
- IC50 [1]: 301 to 1000 nM
- IC50 [2]: < 100 nM
- IC50 [3]: 301 to 1000 nM

SMILES: COc1cc(S(=O)(=O)N2CCC(N3CCOCC3)CC2)ccc1Nc1nc(NCC2CCCC2)c2cc[nH]c2n1 [Example 41, N^4-(cyclopentylmethyl)-N^2-(2-methoxy-4-((4-morpholinopiperidin-1-yl)sulfonyl)phenyl)-7H-pyrrolo[2,3-d]pyrimidine-2,4-diamine 2,2,2-trifluoroacetate]
- IC50 [1]: 301 to 1000 nM
- IC50 [2]: < 100 nM
- IC50 [3]: 301 to 1000 nM

SMILES: COCC(C)(C)Nc1nc(Nc2ccc(S(=O)(=O)N3CCC(N4CCOCC4)CC3)cc2OC)nc2[nH]ccc12 [Example 35, N^4-(1-methoxy-2-methylpropan-2-yl)-N^2-(2-methoxy-4-((morpholinopiperidin-1-yl)sulfonyl)phenyl)-7H-pyrrolo[2,3-d]pyrimidine-2,4-diamine]
- IC50 [1]: 301 to 1000 nM
- IC50 [2]: < 100 nM
- IC50 [3]: 101 to 300 nM

SMILES: COc1cc(P2(=O)CCN(C3CC3)CC2)ccc1Nc1nc(NCCS(C)(=O)=O)c2c(C(F)(F)F)c[nH]c2n1 [Example 426, 1-cyclopropyl-4-(3-methoxy-4-((4-((2-(methyl-sulfonyl)eth-yl)amino)-5-(trifluoromethyl)-7H-pyrrolo[2,3-d]pyrimidin-2-yl)amino)phenyl)-1,4-azaphosphinane 4-oxide]
- IC50 [1]: < 100 nM
- IC50 [2]: < 100 nM
- IC50 [3]: < 100 nM

SMILES: CCCNc1nc(Nc2ccc(S(C)(=O)=O)cc2OC)nc2[nH]ccc12 [Example 9, N^2-(2-methoxy-4-(methylsulfonyl)phenyl)-N^4-propyl-7H-pyrrolo[2,3-d]pyrimidine-2,4-diamine 2,2,2-trifluoroacetate]
- IC50 [1]: 301 to 1000 nM
- IC50 [2]: < 100 nM
- IC50 [3]: 301 to 1000 nM

SMILES: COc1cc(S(=O)(=O)N2CCOCC2)ccc1Nc1nc(NCC2CC2)c2cc[nH]c2n1 [Example 31, N^4-(cyclopropylmethyl)-N^2-(2-methoxy-4-(morpholinosulfonyl)phenyl)-7H-pyrrolo[2,3-d]pyrimidine-2,4-diamine 2,2,2-trifluoroacetate]
- IC50 [1]: 301 to 1000 nM
- IC50 [2]: < 100 nM
- IC50 [3]: 301 to 1000 nM
